Reference: patent publication US20160009693A1, “HERBICIDAL COMPOUNDS” (SYNGENTA LIMITED, priority 2013, published 2016)

How the values were obtained:
Assay type in all cases: in vivo
Conditions in all cases: applied at 1000 g/h, evaluated after 13 days
[1] = tested on: Amaranthus retoflexus (AMARE); assay: Herbicidal glasshouse test, pre-emergence, AMARE
Procedure: (§1) Seeds of a variety of test species are sown in standard soil in pots (Alopecurus myosuroides (ALOMY), Setaria faberi (SETFA), Echinochloa crus-galli (ECHCG), Solanum nigrum (SOLNI), Amaranthus retoflexus (AMARE), Ipomoea hederacea (IPOHE)). After cultivation for one day (pre-emergence) or after 8 days cultivation (post-emergence) under controlled conditions in a glasshouse (at 24/16° C., day/night; 14 hours light; 65% humidity), the plants are sprayed with an aqueous spray solution derived from the formulation of the technical active ingredient in acetone / water (50:50) solution containing 0.5% Tween 20 (polyoxyethelyene sorbitan monolaurate, CAS RN 9005-64-5). […] The test plants are then grown in a glasshouse under controlled conditions in a glasshouse (at 24/16° C., day/night; 14 hours light; 65% humidity) and watered twice daily. After 13 days for pre and post-emergence, the test is evaluated for the percentage damage caused to the plant. The biological activities are shown in the following table on a five point scale (5=80-100%; 4=60-79%; 3=40-59%; 2=20-39%; 1=0-19%).

[2] = tested on: Alopecurus myosuroides (ALOMY); assay: Herbicidal glasshouse test, post-emergence, ALOMY
Procedure: as §1

[3] = tested on: Setaria faberi (SETFA); assay: Herbicidal glasshouse test, pre-emergence, SETFA
Procedure: as §1

[4] = tested on: Echinochloa crus-galli (ECHCG); assay: Herbicidal glasshouse test, pre-emergence, ECHCG
Procedure: as §1

[5] = tested on: Alopecurus myosuroides (ALOMY); assay: Herbicidal glasshouse test, pre-emergence, ALOMY
Procedure: as §1

[6] = tested on: Setaria faberi (SETFA); assay: Herbicidal glasshouse test, post-emergence, SETFA
Procedure: as §1

[7] = tested on: Solanum nigrum (SOLNI); assay: Herbicidal glasshouse test, pre-emergence, SOLNI
Procedure: as §1

[8] = tested on: Amaranthus retoflexus (AMARE); assay: Herbicidal glasshouse test, post-emergence, AMARE
Procedure: as §1

[9] = tested on: Echinochloa crus-galli (ECHCG); assay: Herbicidal glasshouse test, post-emergence, ECHCG
Procedure: as §1

[10] = tested on: Solanum nigrum (SOLNI); assay: Herbicidal glasshouse test, post-emergence, SOLNI
Procedure: as §1

[11] = tested on: Ipomoea hederacea (IPOHE); assay: Herbicidal glasshouse test, post-emergence, IPOHE
Procedure: as §1

[12] = tested on: Ipomoea hederacea (IPOHE); assay: Herbicidal glasshouse test, pre-emergence, IPOHE
Procedure: as §1

| Structure (SMILES) | PRE Application AMARE, percentage damage (five point scale) [1] | POST Application ALOMY, percentage damage (five point scale) [2] | PRE Application SETFA, percentage damage (five point scale) [3] | PRE Application ECHCG, percentage damage (five point scale) [4] | PRE Application ALOMY, percentage damage (five point scale) [5] | POST Application SETFA, percentage damage (five point scale) [6] | PRE Application SOLNI, percentage damage (five point scale) [7] | POST Application AMARE, percentage damage (five point scale) [8] | POST Application ECHCG, percentage damage (five point scale) [9] | POST Application SOLNI, percentage damage (five point scale) [10] | POST Application IPOHE, percentage damage (five point scale) [11] | PRE Application IPOHE, percentage damage (five point scale) [12] |
| --- | --- | --- | --- | --- | --- | --- | --- | --- | --- | --- | --- | --- |
| Cn1cnnc1NC(=O)c1nn(C)c(=O)n(-c2ccccc2)c1=O [Compound 6.001] | 5 (5=80-100%) | 3 (3=40-59%) | 5 (5=80-100%) | 1 (1=0-19%) | 1 (1=0-19%) | 3 (3=40-59%) | 5 (5=80-100%) | 5 (5=80-100%) | 5 (5=80-100%) | 5 (5=80-100%) | 5 (5=80-100%) | 1 (1=0-19%) |
| Cn1cnnc1NC(=O)c1nn(C)c(=O)n(-c2cccc(F)c2F)c1=O [Compound 6.002] | 5 (5=80-100%) | 4 (4=60-79%) | 2 (2=20-39%) | 2 (2=20-39%) | 2 (2=20-39%) | 4 (4=60-79%) | 5 (5=80-100%) | 5 (5=80-100%) | 4 (4=60-79%) | 5 (5=80-100%) | 5 (5=80-100%) | 5 (5=80-100%) |
| Cn1nnnc1NC(=O)c1nn(C)c(=O)n(-c2ccc(Br)cc2)c1=O [Compound 1.027] | 5 (5=80-100%) | 5 (5=80-100%) | 5 (5=80-100%) | 5 (5=80-100%) | 5 (5=80-100%) | 5 (5=80-100%) | 5 (5=80-100%) | 5 (5=80-100%) | 5 (5=80-100%) | 5 (5=80-100%) | 5 (5=80-100%) | 5 (5=80-100%) |
| COc1ccc([N+](=O)[O-])cc1Cn1c(=O)c(C(=O)Nc2nnnn2C)nn(C)c1=O [Compound 1.081] | 5 (5=80-100%) | 5 (5=80-100%) | 2 (2=20-39%) | 5 (5=80-100%) | 5 (5=80-100%) | 4 (4=60-79%) | 5 (5=80-100%) | 5 (5=80-100%) | 4 (4=60-79%) | 5 (5=80-100%) | 5 (5=80-100%) | 5 (5=80-100%) |
| Cc1ccc(Cl)cc1-n1c(=O)c(C(=O)Nc2nnnn2C)nn(C)c1=O [Compound 1.016] | 5 (5=80-100%) | 5 (5=80-100%) | 5 (5=80-100%) | 5 (5=80-100%) | 5 (5=80-100%) | 5 (5=80-100%) | 5 (5=80-100%) | 5 (5=80-100%) | 5 (5=80-100%) | 5 (5=80-100%) | 5 (5=80-100%) | 5 (5=80-100%) |
| COc1ccc(F)c(Cn2c(=O)c(C(=O)Nc3nnnn3C)nn(C)c2=O)c1Cl [Compound 1.077] | 3 (3=40-59%) | 4 (4=60-79%) | 2 (2=20-39%) | 4 (4=60-79%) | 4 (4=60-79%) | 2 (2=20-39%) | 4 (4=60-79%) | 3 (3=40-59%) | 4 (4=60-79%) | 4 (4=60-79%) | 4 (4=60-79%) | 4 (4=60-79%) |
| CSc1ccc(-n2c(=O)c(C(=O)Nc3nnnn3C)nn(C)c2=O)cc1 [Compound 1.009] | 5 (5=80-100%) | 5 (5=80-100%) | 1 (1=0-19%) | 2 (2=20-39%) | 2 (2=20-39%) | 5 (5=80-100%) | 5 (5=80-100%) | 5 (5=80-100%) | 5 (5=80-100%) | 5 (5=80-100%) | 5 (5=80-100%) | 4 (4=60-79%) |
| Cn1nnnc1NC(=O)c1nn(C)c(=O)n(Cc2ccccc2[N+](=O)[O-])c1=O [Compound 1.060] | 5 (5=80-100%) | 5 (5=80-100%) | 5 (5=80-100%) | 5 (5=80-100%) | 5 (5=80-100%) | 5 (5=80-100%) | 5 (5=80-100%) | 5 (5=80-100%) | 5 (5=80-100%) | 5 (5=80-100%) | 5 (5=80-100%) | 5 (5=80-100%) |
| COCCOc1ccc(-n2c(=O)c(C(=O)Nc3nnnn3C)nn(C)c2=O)cc1 [Compound 1.023] | 5 (5=80-100%) | 5 (5=80-100%) | 5 (5=80-100%) | 5 (5=80-100%) | 5 (5=80-100%) | 5 (5=80-100%) | 5 (5=80-100%) | 5 (5=80-100%) | 5 (5=80-100%) | 5 (5=80-100%) | 5 (5=80-100%) | 5 (5=80-100%) |
